Source: US4663311A, “Derivatives of muramyl-peptides and of steroids having macrophage-activating properties” (priority 1983, dated 1987)

Tests used:
B16-BL6 melanoma = test: Cytotoxicity against B16-BL6 melanoma cocultured with treated rat alveolar macrophages (125I-deoxyuridine remaining); assay type: cell-based
Protocol: The macrophages used are alveolar macrophages of F344 male rats of 200 gm. The macrophages are obtained by washing the lung with 9×5 ml of PBS medium of DULBECCO without calcium or magnesium, of rats anesthesitized with 0.5 ml 5% Nembutal ip (Laboratoires Abbott S.A.) and bled by incision of an artery of the kidney. After centrifugation, they are resuspended in MEM (Minimal Essential Medium) supplemented with 5% of inactivated fetal calf serum (Gibco), glutamine, sodium pyruvate, non-essential amino acids, vitamins and antibiotics (penicillin and streptomycine).
The suspension is then adjusted to 5×10^5 macrophages/ml and redistributed in the proportion of 100 μl per cup in a TITERTEK plastic dish of 96 cups. After incubation for 4 hours, the macrophages have adhered; the non-adherent cells (less than 5%) are removed by aspiration of the medium and two washings with incubation medium. […]
After 96 hours of coculture, the dead cells are removed by 3 washings of each cup with 200 μl of PBS of DULBECCO medium. […] The radioactivity remaining in each cup is counted in a gamma counter (BECKMAN GAMMA 4000). […]
the antitumoral activity of the macrophages is expressed as a cytotoxicity percentage (%CYT): [formula] where T=^125 I-deoxyuridine remaining in the untreated macrophages+tumoral cells coculture; and […]

influenza virus A/PR 8 = test: Anti-viral activity in experimental influenza infection of Swiss mice; assay type: in vivo, mouse
From the text: The anti-viral activity has been evaluated in an experimental infection system. Swiss mice aged 10 weeks were used. The virus chosen was that of the influenza virus A/PR 8.
At day D-0, the animals received by the intra-nasal route 50 microliters of a viral dilution at 1/10^4.
An anti-viral activity of the tested compound has been found both in preventive and curative experiments (prevention). The administration of one mg of compound by the intra-nasal route one day prior to the viral dilution produced the survival of 67% of the animals.
When the compounds were used at the curative level, the best results were obtained when 0.5 mg of the compound was administered sub-cutaneously one day after the administration of the viral dilution. 71% of the animals survived.

Mastocytoma P815 = test: Growth inhibition of mastocytoma P815 cocultured with treated mouse peritoneal macrophages (tritiated thymidine incorporation); assay type: cell-based; conditions: MTP-chol in liposomes at 2 μg/ml (400 μg liposomes/ml) or 1 μg/ml (200 μg liposomes/ml) vs 50 μg of MDP
Protocol: I. The microphages used are peritoneal macrophages from eight week old female BDF 1 mice. They have been brought into the peritoneal cavity by i.p. injection 4 days earlier, of 1.5 ml of a sterile inflammatory irritant, thioglycollate medium (marketed by Institut Pasteur Production).
The peritoneal cells are obtained by peritoneal washing with 5 ml of MEM medium (see below) of mice previously killed by cervical dislocation and bled by decapitation.
After centrifugation, they are replaced in suspension in MEM (Minimal Essential Medium, Institut Pasteur Production) supplemented with 5% of inactivated fetal calf serum (gibco), and antibiotics (penicillin+streptomycine).
The macrophages are identified by microscope by their aptitude to endocyte neutral red and counted on an aliquot portion.
The suspension is then adjusted to 2.10^6 macrophages/ml and distributed in the proportion of 250 μl per cup in a Microtest II (NUNCLON) plastic box of 96 cups.
The disk is placed in an oven (HERAEUS) at 37° C. in an air atmosphere+5% water-saturated CO2. […]
The portion of filter corresponding to each cup is cut out and counted in the presence of scintillation liquid (LIPOLUMAC, LUMA) in a scintillation counter (RACKBETA, LKB). […]
The antitumoral activity of the macrophages is expressed as a percentage of growth inhibition: (%IC) [formula] […]

## CC(=O)N[C@@H]1[C@@H](OC(C)C(=O)N[C@@H](C)C(=O)N[C@H](CCC(=O)N[C@@H](C)C(=O)O[C@H]2CC[C@@]3(C)C(=CC[C@H]4[C@@H]5CC[C@H]([C@H](C)CCCC(C)C)[C@@]5(C)CC[C@@H]43)C2)C(N)=O)[C@H](O)[C@@H](CO)O[C@@H]1O (stereo partly drawn) [MTP-chol, N-acetyl-muramyl-L-alanyl-D-isoglutaminyl-L-alanyl-cholsteryl ester]
B16-BL6 melanoma; 40 μg phospholipid/ml
  concentration of MTP-chol in the liposomes that significantly activates the macrophages: > 0.0017 µg/mL
B16-BL6 melanoma; 400 μg phospholipid/ml
  concentration of MTP-chol in the liposomes that significantly activates the macrophages: more than 0.017 μg/ml
Influenza virus A/PR 8; curative: 0.5 mg sub-cutaneously one day after the viral dilution
  animals survived: 71%
Influenza virus A/PR 8; preventive: one mg intra-nasal one day prior to the viral dilution
  survival of the animals: 67%
Mastocytoma P815
  activation of macrophages compared with MDP: activates the macrophages significantly more than 50 μg of MDP does
